Measured values: patent publication US9624215B2, “Amine derivative or salt thereof” (TOYAMA CHEMICAL CO., LTD., priority 2012, dated 2017)

Assays:
[1] = tested on: TPA-induced ear edema and acanthosis in Balb/c mice; experiment: Mouse TPA-induced ear-swelling model; type: in vivo; conditions: topical, 240 h, 1% w/v solution, 20 μL applied to ear once a day from day 0 to day 9, female Balb/c mice, read-out: Inhibition rate of change in ear thickness on day 10
Description: Seven-week-old female Balb/c mice (Charles River Laboratories Japan) were used. 20 μL of a 20 ng/mL solution of TPA (Wako Pure Chemical Industries, 162-23591) dissolved in 5% DMSO/acetone was applied to the outer side of the mouse ear on day 0, day 2, day 4, day 7 and day 9 to induce ear edema and acanthosis. The test compound was dissolved in a 5% DMSO/acetone solution (concentration: 1% w/v) and 20 μL of the resulting solution was applied to the outer side of the ear once a day from day 0 to day 9. For the control group, a 5% DMSO/acetone solution was similarly applied. The TPA solution and the test compound solution were mixed and applied on the days for TPA application (day 0, day 2, day 4, day 7 and day 9). The ear thickness was chronologically measured on days 0-4 and days 7-10 using a micrometer (Mitutoyo, MDC-25MJT). The change in ear thickness and the inhibition rate were determined by the following formulas. Change in ear thickness=(ear thickness measured on day 10)−(ear thickness measured on day 0 before TPA application) Inhibition rate (%)=100−(change in ear thickness for test compound group/change in ear thickness for control group)×100

[2] = tested on: normal human neonatal foreskin epidermal keratinocytes (NHEK-F); experiment: Cell proliferation inhibition test; type: cell-based; conditions: Keratinocyte, 72 h, NHEK-F cells, three days incubation, ATPlite or CellTiterGlo, read-out: IC50 (concentration of the compound at which the cell count is reduced by 50%)
How it was run: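 IC50 is the compound level halving cell count relative to untreated wells, with counts from ATP-based luminescence (ATPlite or CellTiterGlo). Readout followed 3 days of compound exposure of overnight-attached neonatal foreskin keratinocytes (2×10^3/well, Humedia-EG2 medium).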

## CCCCCCn1ccc2cc(Nc3ncc(C4CC4)cc3C(=O)O)ccc21 [Example 639, 5-cyclopropyl-2-((1-hexyl-1H-indol-5-yl)amino)nicotinic acid]
[1]
  inhibition in vivo at 1 % strength: ≥ 20%
[2]
  IC50: ≤ 10 nM

## O=C(O)c1cc(C2CC2)cnc1Nc1ccc2c(ccn2CC2CCC2)c1 [Example 133, 2-((1-(cyclobutylmethyl)-1H-indol-5-yl)amino)-5-cyclopropylnicotinic acid]
[1]
  inhibition in vivo at 1 % strength: ≥ 20%
[2]
  IC50: ≤ 10 nM

## CC(C)Cn1ccc2cc(Nc3ncc(C4CC4)cc3C(=O)O)cc(-c3ccccc3)c21 [Example 224, 5-cyclopropyl-2-((1-isobutyl-7-phenyl-1H-indol-5-0)amino)nicotinic acid]
[1]
  inhibition in vivo at 1 % strength: ≥ 20%
[2]
  IC50: ≤ 10 nM

## O=C(O)c1cc(C2CC2)cnc1Nc1ccc2c(ccn2CCc2ccccc2)c1 [Example 619, 5-cyclopropyl-2-((1-(2-phenylethyl)-1H-indol-5-yl)amino)nicotinic acid]
[1]
  inhibition in vivo at 1 % strength: ≥ 20%
[2]
  IC50: ≤ 10 nM

## O=C(O)c1cc(C2CC2)cnc1Nc1ccc2c(ccn2Cc2ccc(F)c(F)c2)c1 [Example 635, 5-cyclopropyl-2-((1-(3,4-difluorobenzyl)-1H-indol-5-yl)amino)nicotinic acid]
[1]
  inhibition in vivo at 1 % strength: ≥ 20%
[2]
  IC50: ≤ 10 nM

## O=C(O)c1cc(C2CC2)cnc1Nc1cccc2c1ccn2CC1CCC1 [Example 439, 2-((1-(cyclobutylmethyl)-1H-indol-4-yl)amino)-5-cyclopropylnicotinic acid]
[1]
  inhibition in vivo at 1 % strength: ≥ 20%
[2]
  IC50: ≤ 10 nM

## CCCCn1ccc2cc(Nc3ncc(C4CC4)cc3C(=O)O)ccc21 [Example 637, 2-((1-butyl-1H-indol-5-yl)amino)-5-cyclopropylnicotinic acid]
[1]
  inhibition in vivo at 1 % strength: ≥ 20%
[2]
  IC50: 10 to 100 nM

## O=C(O)c1cc(C2CC2)cnc1Nc1ccc2c(ccn2Cc2ccc(F)cc2)c1 [Example 241, 5-cyclopropyl-2-((1-(4-fluorobenzyl)-1H-indol-5-yl)amino)nicotinic acid]
[1]
  inhibition in vivo at 1 % strength: ≥ 20%
[2]
  IC50: ≤ 10 nM

## O=C(O)c1cc(C2CC2)cnc1Nc1ccc2c(ccn2Cc2cc(F)ccc2F)c1 [Example 641, 5-cyclopropyl-2-((1-(2,5-difluorobenzyl)-1H-indol-5-yl)amino)nicotinic acid]
[1]
  inhibition in vivo at 1 % strength: ≥ 20%
[2]
  IC50: ≤ 10 nM

## CC(C)c1cc(Nc2ncc(C3CC3)cc2C(=O)O)cc2ccn(C)c12 [Example 411, 5-cyclopropyl-2-((7-isopropyl-1-methyl-1H-indol-5-yl)amino)nicotinic acid]
[1]
  inhibition in vivo at 1 % strength: ≥ 20%
[2]
  IC50: 10 to 100 nM

## O=C(O)c1cc(C2CC2)cnc1Nc1ccc2c(ccn2-c2ccc(F)cc2)c1 [Example 233, 5-cyclopropyl-2-((1-(4-fluorophenyl)-1H-indol-5-yl)amino)nicotinic acid]
[1]
  inhibition in vivo at 1 % strength: ≥ 20%
[2]
  IC50: ≤ 10 nM

## O=C(O)c1cc(C2CC2)cnc1Nc1ccc2c(cnn2CC2CCCCC2)c1 [Example 543, 2-((1-(cyclohexylmethyl)-1H-indazol-5-yl)amino)-5-cyclopropylnicotinic acid]
[1]
  inhibition in vivo at 1 % strength: ≥ 20%
[2]
  IC50: ≤ 10 nM

## Cc1ccc(Nc2ccc3c(ccn3Cc3ccccc3)c2)c(C(=O)O)c1 [Example 206, 2-((1-benzyl-1H-indol-5-yl)amino)-5-methylbenzoic acid]
[1]
  inhibition in vivo at 1 % strength: ≥ 20%
[2]
  IC50: ≤ 10 nM

## O=C(O)c1cc(C2CC2)cnc1Nc1cccc2c1ccn2Cc1ccccc1 [Example 208, 2-((1-benzyl-1H-indol-4-yl)amino)-5-cyclopropylnicotinic acid]
[1]
  inhibition in vivo at 1 % strength: ≥ 20%
[2]
  IC50: 10 to 100 nM

## Cn1ccc2cc(Nc3ncc(C4CC4)cc3C(=O)O)cc(-c3ccccc3)c21 [Example 222, 5-cyclopropyl-2-((1-methyl-7-phenyl-1H-indol-5-yl)amino)nicotinic acid]
[1]
  inhibition in vivo at 1 % strength: ≥ 20%
[2]
  IC50: ≤ 10 nM

## Cn1ccc2cc(Nc3ncc(C4CC4)cc3C(=O)O)cc(CCC(C)(C)C)c21 [Example 595, 5-Cyclopropyl-2-((7-(3,3-dimethylbutyl)-1-methyl-1H-indol-5-yl)amino)nicotinic acid]
[1]
  inhibition in vivo at 1 % strength: ≥ 20%
[2]
  IC50: ≤ 10 nM

## O=C(O)c1cc(C2CCCC2)cnc1Nc1ccc2c(ccn2Cc2ccccc2)c1 [Example 128, 2-((1-benzyl-1H-indol-5-yl)amino)-5-cyclopentylnicotinic acid]
[1]
  inhibition in vivo at 1 % strength: ≥ 20%

## COCCCc1cc(Nc2ncc(C3CC3)cc2C(=O)O)cc2ccn(CC3CC3)c12 [Example 609, 5-cyclopropyl-2-((1-(cyclopropylmethyl)-7-(3-methoxypropyl)-1H-indol-5-yl)amino)nicotinic acid]
[2]
  IC50: ≤ 10 nM

## Cn1ccc2cc(Nc3ncc(C4CC4)cc3C(=O)O)cc(-c3ccccc3Cl)c21 [Example 488, 2-((7-(2-chlorophenyl)-1-methyl-1H-indol-5-yl)amino)-5-cyclopropylnicotinic acid]
[2]
  IC50: ≤ 10 nM

## CC(C)n1ccc2ccc(Nc3ncc(C4CC4)cc3C(=O)O)cc21 [Example 519, 5-cyclopropyl-2-((1-isopropyl-1H-indol-6-yl)amino)nicotinic acid]
[2]
  IC50: 10 to 100 nM

## O=C(O)c1cc(Cl)ccc1Nc1ccc2c(ccn2-c2ccc(Cl)cc2)c1 [Example 47, 5-chloro-2-((1-(4-chlorophenyl)-1H-indol-5-yl)amino)benzoic acid]
[2]
  IC50: ≤ 10 nM

## Cc1cnc(Nc2ccc3c(ccn3Cc3ccccc3)c2)c(C(=O)O)c1 [Example 125, 2-((1-benzyl-1H-indol-5-yl)amino)-5-methylnicotinic acid]
[2]
  IC50: 10 to 100 nM

## Cc1ccc(-c2cc(Nc3ncc(C4CC4)cc3C(=O)O)cc3ccn(C)c23)cc1 [Example 478, 5-cyclopropyl-2-((1-methyl-7-(p-tolyl)-1H-indol-5-yl)amino)nicotinic acid]
[2]
  IC50: ≤ 10 nM

## CCn1ccc2cc(Nc3ncc(C4CC4)cc3C(=O)O)ccc21 [Example 121, 5-cyclopropyl-2-((1-ethyl-1H-indol-5-yl)amino)nicotinic acid]
[2]
  IC50: 100 to 1000 nM

## Cn1ccc2cc(Nc3ncc(C4CC4)cc3C(=O)O)cc(-c3ccccc3OC(F)(F)F)c21 [Example 491, 5-cyclopropyl-2-((1-methyl-7-(2-(trifluoromethoxy)phenyl)-1H-indol-5-yl)amino)nicotinic acid]
[2]
  IC50: ≤ 10 nM

## Cn1ccc2cc(Nc3ncc(C4CC4)cc3C(=O)O)cc(C3CCCCC3)c21 [Example 607, 2-((7-cyclohexyl-1-methyl-1H-indol-5-yl)amino)-5-cyclopropylnicotinic acid]
[2]
  IC50: ≤ 10 nM

## Cc1cc(Nc2ncc(C3CC3)cc2C(=O)O)cc2ccn(Cc3ccccc3)c12 [Example 629, 2-((1-benzyl-7-methyl-1H-indol-5-yl)amino)-5-cyclopropylnicotinic acid]
[2]
  IC50: ≤ 10 nM

## Cn1ccc2cc(Nc3ncc(C4CC4)cc3C(=O)O)cc(CCC3CCCCC3)c21 [Example 593, 2-((7-(2-cyclohexylethyl)-1-methyl-1H-indol-5-yl)amino)-5-cyclopropylnicotinic acid]
[2]
  IC50: ≤ 10 nM

## Cn1cc(C2CCCC2)c2cc(Nc3ncc(C4CC4)cc3C(=O)O)ccc21 [Example 614, 2-((3-cyclopentyl-1-methyl-1H-indol-5-yl)amino)-5-cyclopropylnicotinic acid]
[2]
  IC50: 10 to 100 nM

## COc1cccc(-c2cn(C)c3ccc(Nc4ncc(C5CC5)cc4C(=O)O)cc23)c1 [Example 577, 5-cyclopropyl-2-((3-(3-methoxyphenyl)-1-methyl-1H-indol-5-yl)amino)nicotinic acid]
[2]
  IC50: 100 to 1000 nM

## O=C(O)c1cc(Cl)ccc1Nc1cccc2c1ccn2Cc1ccccc1 [Example 6, 2-((1-benzyl-1H-indol-4-yl)amino)-5-chlorobenzoic acid]
[2]
  IC50: 10 to 100 nM

## O=C(O)c1cc(Cl)ccc1Nc1ccnc2c1ccn2Cc1ccccc1 [Example 9, 2-((1-benzyl-1H-pyrrolo(2,3-b)pyridin-4-yl)amino)-5-chlorobenzoic acid]
[2]
  IC50: 10 to 100 nM

## O=C(O)c1cc(Cl)ccc1Nc1ccc2c(ccn2-c2cccnc2)c1 [Example 49, 5-chloro-2-((1-(pyridin-3-yl)-1H-indol-5-yl)amino)benzoic acid]
[2]
  IC50: 10 to 100 nM

## O=C(O)c1cc(Cl)ccc1Nc1ccc2ccn(Cc3ccccc3)c2c1 [Example 4, 2-((1-benzyl-1H-indol-6-yl)amino)-5-chlorobenzoic acid]
[2]
  IC50: 100 to 1000 nM

## Cn1ccc2cc(Nc3ncc(C4CC4)cc3C(=O)O)cc(-c3ccc(OC(F)(F)F)cc3)c21 [Example 493, 5-cyclopropyl-2-((1-methyl-7-(4-(trifluoromethoxy)phenyl)-1H-indol-5-yl)amino)nicotinic acid]
[2]
  IC50: ≤ 10 nM

## O=C(O)c1cc(C2CC2)cnc1Nc1cccc2ccccc12 [Example 371, 5-cyclopropyl-2-(naphthalen-1-ylamino)nicotinic acid]
[2]
  IC50: 100 to 1000 nM

## O=C(O)c1cc(C2CC2)cnc1Nc1cccc2c1ccn2CC1CC1 [Example 437, 5-cyclopropyl-2-((1-(cyclopropylmethyl)-1H-indol-4-yl)amino)nicotinic acid]
[2]
  IC50: 10 to 100 nM
